Values joined by “and” are separate entries in the source; they are usually repeats but may differ in a detail not shown here. Identical values can stand only once.
What was measured:
Klenow fragment (exo+) = biological target: T1, Klenow fragment (exo+) (Escherichia coli, UniProt P00582); experiment: Single nucleotide insertion reaction using Klenow fragment (exo+); format: biochemical, E. coli; conditions: 3 minutes; for rate of incorporation on dx2: template N = X2, 37° C.
T1 construct: Klenow fragment, which is deleted 5′-exonuclease from DNA polymerase I; purchased TAKARA
Description: Using Klenow fragment (exo^+), incorporation of dYTP on dx2 in the template (refer to example 10).
In the template, a position indicated by N was bound with base X or base X2 (for experimental) or base A (for control), and incorporation experiments of various bases were conducted. Results are shown in FIG. 12, in which lanes 1 and 2 indicate control experiments for incorporation of cytosine (C) and thymine (T) on adenine (A).
A solution containing [5′-^32P] labeled primer DNA (20-mer, […]), template DNA (35-mer, […]) and 2× Klenow fragment buffer (TAKARA) were annealed at 95° C. for 3 minutes, 40° C. for 3 minutes and 4° C. for 7 minutes. A solution of equimolar amount of 40 mM dNTP and Klenow fragment (exo^+) (2 unit/ml, For Sequencing, TAKARA) were added thereto and incubated at 37° C. for 3 minutes. […] Products were analyzed by using Phosphoroimager plate.

T7 RNA polymerase [1] = biological target: T2, T7 RNA polymerase (Escherichia phage T7, UniProt P00573); experiment: Transcription by T7 RNA polymerase in presence of rNTP, RNase T2 digestion, 2-dimension TLC (templates 1 and 3); format: biochemical; conditions: for Template 1 (N = A) Measured Value / Template 3 (N = X) Measured Value: rATP, rGTP, rCTP, UTP 2 mM, rYTP 1 mM, nucleotide composition by 2-dimension TLC
Description: Transcription reaction in the presence of rNTP was conducted. […] ATP under the condition of rATP 2 mM, rGTP 2 mM, rCTP 2 mM, UTP 2 mM, and rYTP 1 mM, then generated full length of RNA was digested completely by RNase T2, nucleotide labeled at 3′-terminal was analyzed by 2-dimension TLC. Outline of this experiment is shown as follows.
Reaction was performed as same as in example 8. The generated RNA was isolated by gel electrophoresis. RNA was digested by 0.75 units RNase T2. Each nucleotide was separated using 2-dimension TLC and each ratio was calculated.

T7 RNA polymerase [2] = biological target: T2, T7 RNA polymerase; experiment: Transcription by T7 RNA polymerase, gel electrophoresis of generated RNA; format: biochemical; conditions: for incorporation into the complementary strand of A in transcription (FIG. 10): template 1 (N=A); for incorporation to X in transcription (FIG. 10): template 3 (N=X); for incorporation in transcription opposite G (FIG. 10): template 2 (N=G)
Description: Similarly, a transcription reaction by RNA polymerase using DNA containing X as template was examined. Using template 1-3, promoter region on this strand was duplicated, and the transcription reaction was examined using T7 RNA polymerase by adding [α-^32P] ATP.
Template DNA 1 μM, in which promoter region has duplicated strands, and T7 RNA polymerase 2.5 units were added to a solution containing 2 mM rNTP, [α-^32P] […] The product was analyzed.

Klenow fragment [3] = biological target: T3, Klenow fragment (Escherichia coli, UniProt P00582); experiment: Primer extension reaction by Klenow fragment; format: biochemical, E. coli; parameters: Klenow fragment, which is deleted 5′-exonuclease from DNA polymerase I; purchased TAKARA; conditions: 17° C.; for incorporation to the complementary strand X (primer extension, FIG. 6): template 3 1 μM
From the text: In order to examine formation of selective novel nucleic acid base pair by utilizing steric hindrance in the base pair X-Y, primer extension method of DNA and transcriptional reaction synthesizing RNA from DNA were applied. The primer extension method includes annealing template DNA oligomer with a primer oligomer, and adding DNA polymerase and 2′-deoxynucleotide-5′-triphosphate (dNTP) to extend complementary sequence of the template at 3′-terminal of the primer. Klenow fragment, which is deleted 5′-exonuclease from DNA polymerase I, one of DNA polymerase originated from E. coli, and T7 RNA polymerase, RNA polymerase originated from T7 phage, were herein used. Both enzymes are commonly used at present.
5′-terminal of the primer was labeled with ^32P using T4 polynucleotide kinase and […]. Primer labeled with ^32P (0.5 μM) and template 1 and 3 (1 μM) and various dNTP (150 μM), wherein N means base, were used for primer extension by Klenow fragment (0.2 unit/μl) at 17° C. for 30 minutes.
The thus obtained product was electrophoresed using 20% polyacrylamide 7M urea gel and analyzed by using imaging plate (Phosphoroimager analysis). In FIG. 6, left five, i.e. AG, AGC, AGT, AGY and AGCT, indicates cases using template 1, and right five indicates cases using template 3.
In order to search effect of incorporation of Y, C and T into the complementary strand of X, when two X are presented on the template, ^32P labeled primer 3 at 5′-terminal and template 4, 5, 6, 7, 8 and 9 were used for primer extension method.
5′-^32P labeled primer, template and 10× Klenow fragment buffer (TAKARA) 1 μl were added to the 0.5 ml tube, adjusted total volume to 7 μl, and annealed at 95° C. for 3 minutes, at 40° C. for 3 minutes and at 4° C. for 7 minutes. dNTP 1 μl, Klenow fragment (1 unit/ml, For Sequencing, TAKARA) 2 μl were added, adjusted to total volume to 10 μl and incubated for the fixed time at 17° C. The reaction was terminated by adding 10 M urea BPB dye 5 μl, heated at 75° C. for 5 minutes, and electrophoresed with 20% polyacrylamide gel with 7M urea gel electrophoresis. The result was analyzed using imaging plates (Phosphoroimager analysis). Single nucleotide insertion reaction is shown in FIG. 7 and primer extension reaction is shown in FIG. 6 and FIG. 9, respectively.

Klenow fragment [4] = biological target: T3, Klenow fragment; experiment: Single nucleotide insertion reaction by Klenow fragment; format: biochemical, E. coli; parameters: Klenow fragment, which is deleted 5′-exonuclease from DNA polymerase I; purchased TAKARA; conditions: primer 2 1 μM, only one dNTP 159 μM, 17° C., 30 minutes; for incorporated into complementary strand of X: template 3 2 μM
Description: For quantitative analysis of the incorporation, same experiments were conducted by adding only DNTP (159 μM) using primer 2 (1 μM) labeled with p32 at 5′-terminal and template 1, 2 and 3 (2 μM).
The result was analyzed using imaging plates (Phosphoroimager analysis). Single nucleotide insertion reaction is shown in FIG. 7 and primer extension reaction is shown in FIG. 6 and FIG. 9, respectively.

Klenow fragment [5] = biological target: T3, Klenow fragment; conditions: 17° C.
Description: Primer 2 without labeling and template 2 were annealed, and [α-^32P] TTP and various amounts of dYTP were added thereto to find out ratio of inhibition of incorporation of [α-^32P] TTP into X by dYTP was investigated. […] As a result, when dYTP was added almost equivalent level of [α-^32P] TTP, incorporation of [α-^32P]
Primer, template and 10× Klenow fragment buffer (TAKARA) 1 μl were added to 0.5 ml tube, and total volume was adjusted to 7 μl, and annealed at 95° C. for 3 minutes, at 40° C. for 3 minutes and at 4° C. for 7 minutes. [α-^32P] TTP or [α-^32P] dCTP and dYTP were added to final concentration for each level, and Klenow fragment (1 unit/ml, For Sequencing, TAKARA) 2 μl was added, adjusted to total volume to 10 μl and incubated for the fixed time at 17° C. The reaction was terminated by adding 10 M urea BPB dye 5 μl kept at 75° C. for 5 minutes, and electrophoresed with 20% polyacrylamide gel with 7M urea gel electrophoresis. The result was analyzed using imaging plates (Phosphoroimager analysis).

[6] = primer 1 0.5 μM, dNTP 150 μM, 30 minutes

T3 sequence (P00582 324-928): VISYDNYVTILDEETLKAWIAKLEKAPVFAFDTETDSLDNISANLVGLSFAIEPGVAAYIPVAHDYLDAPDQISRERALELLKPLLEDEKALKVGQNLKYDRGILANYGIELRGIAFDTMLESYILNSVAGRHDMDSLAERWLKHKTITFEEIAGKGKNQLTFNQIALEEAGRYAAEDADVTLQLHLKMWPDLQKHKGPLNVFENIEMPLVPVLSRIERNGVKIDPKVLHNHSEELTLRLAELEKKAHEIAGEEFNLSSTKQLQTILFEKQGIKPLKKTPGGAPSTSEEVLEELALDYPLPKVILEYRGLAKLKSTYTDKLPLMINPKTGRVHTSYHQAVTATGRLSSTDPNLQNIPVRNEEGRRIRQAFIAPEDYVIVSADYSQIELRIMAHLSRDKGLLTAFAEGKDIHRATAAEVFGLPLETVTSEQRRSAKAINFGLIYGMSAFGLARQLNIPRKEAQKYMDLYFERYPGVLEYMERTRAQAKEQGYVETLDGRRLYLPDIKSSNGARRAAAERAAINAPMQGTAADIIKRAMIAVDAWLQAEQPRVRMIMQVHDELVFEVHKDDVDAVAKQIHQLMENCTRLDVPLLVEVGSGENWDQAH
T1 sequence (P00582 324-928): as above
T2 sequence (P00573 whole entry): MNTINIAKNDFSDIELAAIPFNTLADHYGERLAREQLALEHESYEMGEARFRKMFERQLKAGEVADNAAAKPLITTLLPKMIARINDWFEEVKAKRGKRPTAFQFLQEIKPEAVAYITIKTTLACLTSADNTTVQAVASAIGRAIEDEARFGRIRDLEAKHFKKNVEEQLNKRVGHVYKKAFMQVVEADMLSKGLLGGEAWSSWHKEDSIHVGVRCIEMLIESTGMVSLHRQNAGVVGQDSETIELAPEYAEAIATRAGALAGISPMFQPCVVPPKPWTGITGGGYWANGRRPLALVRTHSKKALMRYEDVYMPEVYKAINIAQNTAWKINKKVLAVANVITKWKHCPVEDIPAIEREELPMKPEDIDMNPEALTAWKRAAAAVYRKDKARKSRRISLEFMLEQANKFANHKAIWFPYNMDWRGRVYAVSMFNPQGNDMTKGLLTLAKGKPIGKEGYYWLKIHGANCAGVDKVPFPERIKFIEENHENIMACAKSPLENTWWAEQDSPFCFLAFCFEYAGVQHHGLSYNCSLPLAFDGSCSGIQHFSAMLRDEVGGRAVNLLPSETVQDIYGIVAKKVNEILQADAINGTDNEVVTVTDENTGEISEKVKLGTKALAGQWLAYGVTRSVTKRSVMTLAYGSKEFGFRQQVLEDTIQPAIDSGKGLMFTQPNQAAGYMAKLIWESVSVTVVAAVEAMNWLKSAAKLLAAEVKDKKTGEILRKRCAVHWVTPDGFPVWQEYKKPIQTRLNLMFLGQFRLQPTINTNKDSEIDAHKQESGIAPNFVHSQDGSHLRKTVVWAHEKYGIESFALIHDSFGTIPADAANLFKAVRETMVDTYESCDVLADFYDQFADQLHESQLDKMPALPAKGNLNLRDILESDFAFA

SMILES: Nc1ccn([C@H]2C[C@H](O)[C@@H](COP(=O)(O)OP(=O)(O)OP(=O)(O)O)O2)c(=O)n1 [dCTP]
- rate of incorporation on dx2 (Klenow fragment (exo+)): 22%

SMILES: O=c1cc[nH]c(=O)[nH]1 [U]
- incorporation in transcription reaction in the presence of rNTP (T7 RNA polymerase [1]; template 3 (N=X)): trace amount
- incorporation into the complementary strand of A in transcription (FIG. 10) (T7 RNA polymerase [2]): incorporated
- incorporation to X in transcription (FIG. 10) (T7 RNA polymerase [2]): Trace amount

SMILES: O=c1ccn([C@@H]2O[C@H](CO)[C@@H](OP(=O)(O)O)[C@H]2O)c(=O)[nH]1 [Up]
- Template 1 (N = A) Measured Value (T7 RNA polymerase [1]): 0.98
- Template 3 (N = X) Measured Value (T7 RNA polymerase [1]): 0.08

SMILES: Nc1ncnc2c1ncn2[C@@H]1O[C@H](CO)[C@@H](OP(=O)(O)O)[C@H]1O [Ap]
- Template 1 (N = A) Measured Value (T7 RNA polymerase [1]): 0.92
- Template 3 (N = X) Measured Value (T7 RNA polymerase [1]): 1.05

SMILES: Nc1cc[nH]c(=O)n1 [C, cytosine]
- incorporation in transcription opposite G (FIG. 10) (T7 RNA polymerase [2]): only C was incorporated
- incorporation to the complementary strand X (primer extension, FIG. 6) (Klenow fragment [3]; [6]): incorporated
- incorporated into complementary strand of X (Klenow fragment [4]): 9.5%

SMILES: Cc1c[nH]c(=O)[nH]c1=O [T, thymine]
- incorporation to the complementary strand X (primer extension, FIG. 6) (Klenow fragment [3]; [6]): incorporated
- incorporated into complementary strand of X (Klenow fragment [4]): 13%

SMILES: Nc1ccn([C@@H]2O[C@H](CO)[C@@H](OP(=O)(O)O)[C@H]2O)c(=O)n1 [Cp]
- Template 1 (N = A) Measured Value (T7 RNA polymerase [1]): 0.78
- Template 3 (N = X) Measured Value (T7 RNA polymerase [1]): 0.94

SMILES: O=c1[nH]cccc1[C@H]1C[C@H](O)[C@@H](COP(=O)(O)OP(=O)(O)OP(=O)(O)O)O1 [dYTP, 3-(2′-deoxy-5′-O-triphosphoryl-β-D-ribofuranosyl) pyridine-2-one]
- inhibition of incorporation of [α-32P] TTP into X by dYTP (Klenow fragment [5]; dYTP added at almost equivalent level of [α-32P] TTP, 30 minutes): 50%
- inhibition of incorporation of [α-32P] TTP into the complementary strand of A (Klenow fragment [5]; template 1, dYTP 0-1000 μM): did not inhibit
- inhibition of incorporation of [α-32P] CTP into the complementary strand of G (Klenow fragment [5]; template 2, dYTP 0-1000 μM): did not inhibit
- rate of incorporation on dx2 (Klenow fragment (exo+)): 40%
- rate of incorporation on dx (Klenow fragment (exo+); template N = X, 37° C.): 21%

SMILES: O=c1cccc[nH]1 [Y, pyridine-2-one]
- incorporation in transcription reaction in the presence of rNTP (T7 RNA polymerase [1]; template 1 (N=A)): no incorporation
- incorporation in transcription reaction in the presence of rNTP (T7 RNA polymerase [1]; template 3 (N=X)): almost selectively incorporated
- incorporation into the complementary strand of A in transcription (FIG. 10) (T7 RNA polymerase [2]): incorporated
- incorporation in transcription opposite G (FIG. 10) (T7 RNA polymerase [2]): almost no production
- incorporation to X in transcription (FIG. 10) (T7 RNA polymerase [2]): selective incorporation
- incorporation into the complementary strand of the second X in the two X (Klenow fragment [3]; another base between two X on the template, primer 3, dNTP 150 μM, 60 minutes (FIG. 9)): only Y was incorporated
- incorporation into complementary strands (primer extension, FIG. 6) (Klenow fragment [3]; primer 1 0.5 μM, template 1 and 3 1 μM, dNTP 150 μM, 30 minutes): incorporated into complementary strands of A, G and X
- incorporated into complementary strand of A (Klenow fragment [4]; template 1 2 μM): 78%
- incorporated into complementary strand of G (Klenow fragment [4]; template 2 2 μM): 48%
- incorporated into complementary strand of X (Klenow fragment [4]): 42% and 41%

SMILES: Nc1nc2c(ncn2[C@@H]2O[C@H](CO)[C@@H](OP(=O)(O)O)[C@H]2O)c(=O)[nH]1 [Gp]
- Template 1 (N = A) Measured Value (T7 RNA polymerase [1]): 4
- Template 3 (N = X) Measured Value (T7 RNA polymerase [1]): 4

Reference: patent publication US7667031B2, “Nucleic acid base pair” (Japan Science and Technology Agency, priority 1999, dated 2010)
